Like-named read-outs stand apart in the source and are kept apart here. One block for each compound: values may come before it.
Tests used:
Assay type in all cases: biochemical
PDE1B = biological target: T1, PDE1B (Homo sapiens, UniProt Q01064); assay: Phosphodiesterase enzyme screening assay, PDE1B
T1 construct: purchased Reaction Biology Corporation, Malvern, Pa
Outline: (§1)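 Compounds were tested on commercial human PDE enzymes using a fluorescent cGMP substrate at 4.0 μM, incubated for one hour at room temperature. Values are means of four wells versus controls.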

PDE1A = biological target: T2, PDE1A (Homo sapiens, UniProt P54750); assay: Phosphodiesterase enzyme screening assay, PDE1A
T2 construct: purchased Reaction Biology Corporation, Malvern, Pa
Outline: as §1

PDE9A2 = biological target: T3, PDE9A2 (Homo sapiens, UniProt O76083); assay: Phosphodiesterase enzyme screening assay, PDE9A2; details: read-out: Band (PDE9A2 IC50)
T3 construct: purchased Reaction Biology Corporation, Malvern, Pa
Outline: as §1

[1] = ratio of IC50 values PDE1B / PDE9A2, value greater than 1 indicates greater selectivity for PDE9A2
[2] = ratio of IC50 values PDE1A / PDE9A2, value greater than 1 indicates greater selectivity for PDE9A2
[3] = 4.0 μM cGMP substrate, 1 hour at R.T.
[4] = ratio of IC50 values, PDE1B versus PDE9A2, value greater than 1 indicates greater selectivity for PDE9A2
[5] = ratio of IC50 values, PDE1A versus PDE9A2, value greater than 1 indicates greater selectivity for PDE9A2
[6] = Table 1, ratio of IC50 values, value greater than 1 indicates greater selectivity for PDE9A2
[7] = Table 1, 10 concentrations, 4.0 μM cGMP substrate, 1 hour at R.T.
[8] = Table 2, ratio of IC50 values, value greater than 1 indicates greater selectivity for PDE9A2

T1 sequence (Q01064 whole entry): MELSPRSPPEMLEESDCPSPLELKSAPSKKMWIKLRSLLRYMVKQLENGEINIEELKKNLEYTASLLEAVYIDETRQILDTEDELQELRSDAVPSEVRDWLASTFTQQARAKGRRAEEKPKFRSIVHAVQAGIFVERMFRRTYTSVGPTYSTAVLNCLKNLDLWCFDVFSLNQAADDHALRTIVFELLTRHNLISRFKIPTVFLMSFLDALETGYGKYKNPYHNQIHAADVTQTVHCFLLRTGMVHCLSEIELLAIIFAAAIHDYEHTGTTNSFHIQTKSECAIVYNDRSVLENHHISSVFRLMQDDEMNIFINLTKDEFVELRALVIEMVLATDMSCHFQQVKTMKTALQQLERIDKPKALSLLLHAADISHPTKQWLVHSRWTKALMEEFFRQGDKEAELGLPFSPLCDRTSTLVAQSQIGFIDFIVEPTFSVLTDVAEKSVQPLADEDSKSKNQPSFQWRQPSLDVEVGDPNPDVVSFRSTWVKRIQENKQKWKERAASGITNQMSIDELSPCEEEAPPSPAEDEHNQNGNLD
T3 sequence (O76083 1-533 isoform O76083-2): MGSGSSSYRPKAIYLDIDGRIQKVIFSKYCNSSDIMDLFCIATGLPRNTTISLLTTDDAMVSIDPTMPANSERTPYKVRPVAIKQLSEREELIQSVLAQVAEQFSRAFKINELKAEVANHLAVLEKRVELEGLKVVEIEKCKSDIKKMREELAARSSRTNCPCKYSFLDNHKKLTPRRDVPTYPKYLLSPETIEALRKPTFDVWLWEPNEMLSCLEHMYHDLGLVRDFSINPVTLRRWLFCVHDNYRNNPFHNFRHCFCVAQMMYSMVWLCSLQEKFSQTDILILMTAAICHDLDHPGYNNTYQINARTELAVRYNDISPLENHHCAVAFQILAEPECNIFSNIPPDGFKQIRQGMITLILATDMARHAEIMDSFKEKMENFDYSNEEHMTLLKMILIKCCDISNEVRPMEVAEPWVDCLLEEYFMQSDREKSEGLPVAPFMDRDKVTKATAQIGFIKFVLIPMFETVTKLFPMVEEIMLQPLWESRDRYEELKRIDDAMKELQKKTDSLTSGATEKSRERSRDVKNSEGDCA
T2 sequence (P54750 whole entry): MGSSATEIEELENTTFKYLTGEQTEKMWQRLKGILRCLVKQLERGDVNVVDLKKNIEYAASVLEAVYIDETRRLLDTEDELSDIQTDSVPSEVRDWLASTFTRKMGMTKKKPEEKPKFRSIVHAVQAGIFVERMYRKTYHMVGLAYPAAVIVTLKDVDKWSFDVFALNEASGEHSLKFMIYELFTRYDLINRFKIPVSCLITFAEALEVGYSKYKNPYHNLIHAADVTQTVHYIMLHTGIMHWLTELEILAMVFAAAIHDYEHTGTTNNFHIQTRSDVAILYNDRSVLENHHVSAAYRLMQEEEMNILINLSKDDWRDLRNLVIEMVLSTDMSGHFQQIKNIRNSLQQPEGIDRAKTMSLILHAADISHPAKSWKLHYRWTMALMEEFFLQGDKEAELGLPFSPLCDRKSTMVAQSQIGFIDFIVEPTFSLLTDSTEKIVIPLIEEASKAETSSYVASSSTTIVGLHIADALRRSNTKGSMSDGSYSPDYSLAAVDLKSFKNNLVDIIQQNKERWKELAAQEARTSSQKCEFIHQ

Structure (SMILES): CC1CN(Cc2ccoc2)CC1c1nn2c(C3CCOCC3)ncc2c(=O)[nH]1 (single isomer, unassigned; (+)) [(+)-2-((3,4-trans)-1-(furan-3-ylmethyl)-4-methylpyrrolidin-3-yl)-7-(tetrahydro-2H-pyran-4-yl)imidazo[5,1-f][1,2,4]triazin-4(3H)-one]
- PDE1B selectivity (versus PDE9A2) (PDE1B; ratio of IC50 values, PDE1B versus PDE9A2, value greater than 1 = greater selectivity for PDE9A2): 123
- PDE1A selectivity (versus PDE9A2) (PDE1A; ratio of IC50 values, PDE1A versus PDE9A2, value greater than 1 = greater selectivity for PDE9A2): 68
- IC50 (PDE9A2; Table 3, 4.0 μM cGMP substrate, 1 hour at R.T.): < 1 µM

Structure (SMILES): CC1CN(Cc2ccc3nccn3n2)CC1c1nn2c(C3CCOCC3)ncc2c(=O)[nH]1 (single isomer, unassigned; (+)) [(+)-2-((3,4-trans)-1-(imidazo[1,2-b]pyridazin-6-ylmethyl)-4-methylpyrrolidin-3-yl)-7-(tetrahydro-2H-pyran-4-yl)imidazo[5,1-f][1,2,4]triazin-4(3H)-one]
- PDE1B selectivity (versus PDE9A2) (PDE1B; [6]): 633
- PDE1A selectivity (versus PDE9A2) (PDE1A; [6]): 232
- IC50 (PDE9A2; [7]): < 1 µM

Structure (SMILES): CC1CN(Cc2ccc3cnccc3c2)CC1c1nn2c(C3CCOCC3)ncc2c(=O)[nH]1 (single isomer, unassigned; (+)) [(+)-2-((3,4-trans)-1-(isoquinolin-6-ylmethyl)-4-methylpyrrolidin-3-yl)-7-(tetrahydro-2H-pyran-4-yl)imidazo[5,1-f][1,2,4]triazin-4(3H)-one]
- PDE1B selectivity (versus PDE9A2) (PDE1B; [6]): 335
- PDE1A selectivity (versus PDE9A2) (PDE1A; [6]): 145
- IC50 (PDE9A2; [7]): < 1 µM

Structure (SMILES): CC1CN(Cc2ccc3ccncc3c2)CC1c1nn2c(C3CCOCC3)ncc2c(=O)[nH]1 (single isomer, unassigned; (+)) [(+)-2-((3,4-trans)-1-(isoquinolin-7-ylmethyl)-4-methylpyrrolidin-3-yl)-7-(tetrahydro-2H-pyran-4-yl) imidazo [5,1-f] [1,2,4] triazin-4(3H)-one]
- PDE1B selectivity (versus PDE9A2) (PDE1B; [6]): 893
- PDE1A selectivity (versus PDE9A2) (PDE1A; [6]): 223
- IC50 (PDE9A2; [7]): < 1 µM

Structure (SMILES): CC1CN(Cc2ccccc2)CC1c1nn2c(-c3ccccc3F)ncc2c(=O)[nH]1 (single isomer, unassigned; (+)) [(+)-2-((3,4-trans)-1-benzyl-4-methylpyrrolidin-3-yl)-7-(2-fluorophenyl)imidazo[5,1-f][1,2,4]triazin-4(3H)-one]
- PDE1B selectivity (versus PDE9A2) (PDE1B; [1]): 83
- PDE1A selectivity (versus PDE9A2) (PDE1A; [2]): 76
- IC50 (PDE9A2; [3]): < 1 µM

Structure (SMILES): CC1CN(Cc2ccccc2)CC1c1nn2c(-c3cccc(F)c3)ncc2c(=O)[nH]1 (single isomer, unassigned; (+)) [(+)-2-((3,4-trans)-1-benzyl-4-methylpyrrolidin-3-yl)-7-(3-fluorophenyl)imidazo[5,1-f][1,2,4]triazin-4(3H)-one]
- PDE1B selectivity (versus PDE9A2) (PDE1B; [4]): 113
- PDE1A selectivity (versus PDE9A2) (PDE1A; [5]): 70
- IC50 (PDE9A2): < 1 µM

Structure (SMILES): CC1CN(Cc2ccccc2)CC1c1nn2c(C3CCC(F)(F)CC3)ncc2c(=O)[nH]1 (single isomer, unassigned; (+)) [(+)-2-((3,4-trans)-1-benzyl-4-methylpyrrolidin-3-yl)-7-(4,4-difluorocyclohexyl)imidazo[5,1-f][1,2,4]triazin-4(3H)-one]
- PDE1B selectivity (versus PDE9A2) (PDE1B; [6]): 496
- PDE1A selectivity (versus PDE9A2) (PDE1A; [6]): 309
- IC50 (PDE9A2; [7]): < 1 µM

Structure (SMILES): Cc1cc(F)c(F)cc1-c1ncc2c(=O)[nH]c(C3CN(Cc4ccccc4)CC3C)nn12 (single isomer, unassigned; (+)) [(+)-2-((3,4-trans)-1-benzyl-4-methylpyrrolidin-3-yl)-7-(4,5-difluoro-2-methylphenyl)imidazo[5,1-f][1,2,4]triazin-4(3H)-one]
- PDE1B selectivity (versus PDE9A2) (PDE1B; [4]): 143
- PDE1A selectivity (versus PDE9A2) (PDE1A; [5]): 174
- IC50 (PDE9A2): < 1 µM

Structure (SMILES): CC1CN(Cc2ccccc2)CC1c1nn2c(-c3ccc(F)cc3)ncc2c(=O)[nH]1 (single isomer, unassigned; (+)) [(+)-2-((3,4-trans)-1-benzyl-4-methylpyrrolidin-3-yl)-7-(4-fluorophenyl)imidazo[5,1-f][1,2,4]triazin-4(3H)-one]
- PDE1B selectivity (versus PDE9A2) (PDE1B; [4]): 286
- PDE1A selectivity (versus PDE9A2) (PDE1A; [5]): 220
- IC50 (PDE9A2): < 1 µM

Structure (SMILES): CCC(CC)c1ncc2c(=O)[nH]c(C3CN(Cc4ccccc4)CC3C)nn12 (single isomer, unassigned; (+)) [(+)-2-((3,4-trans)-1-benzyl-4-methylpyrrolidin-3-yl)-7-(pentan-3-yl)imidazo[5,1-f][1,2,4]triazin-4(3H)-one]
- PDE1B selectivity (versus PDE9A2) (PDE1B; [4]): 86
- PDE1A selectivity (versus PDE9A2) (PDE1A; [5]): 175
- IC50 (PDE9A2): < 1 µM

Structure (SMILES): CC1CN(Cc2ccccc2)CC1c1nn2c(-c3ccccc3)ncc2c(=O)[nH]1 (single isomer, unassigned; (+)) [(+)-2-((3,4-trans)-1-benzyl-4-methylpyrrolidin-3-yl)-7-phenylimidazo[5,1-f][1,2,4]triazin-4(3H)-one]
- PDE1B selectivity (versus PDE9A2) (PDE1B; [4]): 12
- PDE1A selectivity (versus PDE9A2) (PDE1A; [5]): 4
- IC50 (PDE9A2): < 1 µM

Structure (SMILES): CC1CN(CCc2cncnc2)CC1c1nn2c(C3CCOCC3)ncc2c(=O)[nH]1 (single isomer, unassigned; (+)) [(+)-2-((3,4-trans)-4-methyl-1-(2-(pyrimidin-5-yl)ethyl)pyrrolidin-3-yl)-7-(tetrahydro-2H-pyran-4-yl)imidazo[5,1-f][1,2,4]triazin-4(3H)-one]
- PDE1B selectivity (versus PDE9A2) (PDE1B; [8]): 89
- PDE1A selectivity (versus PDE9A2) (PDE1A; [8]): 71
- IC50 (PDE9A2; Table 2, 10 concentrations, 4.0 μM cGMP substrate, 1 hour at R.T.): < 1 µM

Structure (SMILES): CC1CN(Cc2ccccc2N2CCCC2)CC1c1nn2c(C3CCOCC3)ncc2c(=O)[nH]1 (single isomer, unassigned; (+)) [(+)-2-((3,4-trans)-4-methyl-1-(2-(pyrrolidin-1-yl)benzyl)pyrrolidin-3-yl)-7-(tetrahydro-2H-pyran-4-yl)imidazo[5,1-f][1,2,4]triazin-4(3H)-one]
- PDE1B selectivity (versus PDE9A2) (PDE1B; [6]): 213
- PDE1A selectivity (versus PDE9A2) (PDE1A; [6]): 184
- IC50 (PDE9A2; [7]): < 1 µM

The next lines start with the values.

- PDE1B selectivity (versus PDE9A2) (PDE1B; [1]): 149
- PDE1A selectivity (versus PDE9A2) (PDE1A; [2]): 155
- IC50 (PDE9A2; [3]): < 1 µM
Structure (SMILES): Cc1cnccc1-c1ncc2c(=O)[nH]c(C3CN(Cc4cn5ccccc5n4)CC3C)nn12 (single isomer, unassigned; (+)) [(+)-2-((3,4-trans)-1-(imidazo[1,2-a]pyridin-2-ylmethyl)-4-methylpyrrolidin-3-yl)-7-(3-methylpyridin-4-yl)imidazo[5,1-f][1,2,4]triazin-4(3H)-one]

- PDE1B selectivity (versus PDE9A2) (PDE1B; [4]): 230
- PDE1A selectivity (versus PDE9A2) (PDE1A; [5]): 128
- IC50 (PDE9A2): < 1 µM
Structure (SMILES): Cc1ccncc1-c1ncc2c(=O)[nH]c(C3CN(Cc4cn5ccccc5n4)CC3C)nn12 (single isomer, unassigned; (+)) [(+)-2-((3,4-trans)-1-(imidazo[1,2-a]pyridin-2-ylmethyl)-4-methylpyrrolidin-3-yl)-7-(4-methylpyridin-3-yl)imidazo[5,1-f][1,2,4]triazin-4(3H)-one]

- PDE1B selectivity (versus PDE9A2) (PDE1B; [4]): 661
- PDE1A selectivity (versus PDE9A2) (PDE1A; [5]): 326
- IC50 (PDE9A2): < 1 µM
Structure (SMILES): Cc1ccccc1-c1ncc2c(=O)[nH]c(C3CN(Cc4cn5ccccc5n4)CC3C)nn12 (single isomer, unassigned; (+)) [(+)-2-((3,4-trans)-1-(imidazo[1,2-a]pyridin-2-ylmethyl)-4-methylpyrrolidin-3-yl)-7-(o-tolyl)imidazo[5,1-f][1,2,4]triazin-4(3H)-one]

- PDE1B selectivity (versus PDE9A2) (PDE1B; [1]): 48
- PDE1A selectivity (versus PDE9A2) (PDE1A; [2]): 51
- IC50 (PDE9A2; [3]): < 1 µM
Structure (SMILES): CCC(CC)c1ncc2c(=O)[nH]c(C3CN(Cc4cn5ccccc5n4)CC3C)nn12 (single isomer, unassigned; (+)) [(+)-2-((3,4-trans)-1-(imidazo[1,2-a]pyridin-2-ylmethyl)-4-methylpyrrolidin-3-yl)-7-(pentan-3-yl)imidazo[5,1-f][1,2,4]triazin-4(3H)-one]

- PDE1B selectivity (versus PDE9A2) (PDE1B; [6]): 734
- PDE1A selectivity (versus PDE9A2) (PDE1A; [6]): 754
- IC50 (PDE9A2; [7]): < 1 µM
Structure (SMILES): CC1CN(Cc2cn3ccccc3n2)CC1c1nn2c(C3CCOCC3)ncc2c(=O)[nH]1 (single isomer, unassigned; (+)) [(+)-2-((3,4-trans)-1-(imidazo[1,2-a]pyridin-2-ylmethyl)-4-methylpyrrolidin-3-yl)-7-(tetrahydro-2H-pyran-4-yl)imidazo[5,1-f][1,2,4]triazin-4(3H)-one]

- PDE1B selectivity (versus PDE9A2) (PDE1B; [1]): 144
- PDE1A selectivity (versus PDE9A2) (PDE1A; [2]): 167
- IC50 (PDE9A2; [3]): < 1 µM
Structure (SMILES): Cc1cnccc1-c1ncc2c(=O)[nH]c(C3CN(Cc4ccccc4)CC3C)nn12 (single isomer, unassigned; (+)) [(+)-2-((3,4-trans)-1-benzyl-4-methylpyrrolidin-3-yl)-7-(3-methylpyridin-4-yl) imidazo [5,1-f] [1,2,4] triazin-4 (3H)-one]

- PDE1B selectivity (versus PDE9A2) (PDE1B; [4]): 379
- PDE1A selectivity (versus PDE9A2) (PDE1A; [5]): 148
- IC50 (PDE9A2): < 1 µM
Structure (SMILES): Cc1ccncc1-c1ncc2c(=O)[nH]c(C3CN(Cc4ccccc4)CC3C)nn12 (single isomer, unassigned; (+)) [(+)-2-((3,4-trans)-1-benzyl-4-methylpyrrolidin-3-yl)-7-(4-methylpyridin-3-yl)imidazo[5,1-f][1,2,4]triazin-4(3H)-one]

- PDE1B selectivity (versus PDE9A2) (PDE1B; [4]): 531
- PDE1A selectivity (versus PDE9A2) (PDE1A; [5]): 461
- IC50 (PDE9A2): < 1 µM
Structure (SMILES): Cc1ccccc1-c1ncc2c(=O)[nH]c(C3CN(Cc4ccccc4)CC3C)nn12 (single isomer, unassigned; (+)) [(+)-2-((3,4-trans)-1-benzyl-4-methylpyrrolidin-3-yl)-7-(o-tolyl)imidazo[5,1-f][1,2,4]triazin-4(3H)-one]
